# From patent publication US4368203A, “Antibiotics and derivatives thereof having β-lactamase inhibitory activity and production thereof” (priority 1977, dated 1983)
# Entries after “also recorded” stand apart in the source; their conditions may differ. Read-outs that look alike come from different tables or passages of the source.
# Experiments:
# [1] = test system: Alcaligenes faecalis B-326; test: MIC, broth dilution method; type: cell-based; conditions: Alcaligenes faecalis, B326, read-out: Minimum inhibitory concentration
# Protocol: (§1) Sodium salt of the antibiotic PS-7 was dissolved and diluted with the BRAIN HEART INFUSION BROTH "Eiken" at a concentration between 5 μg/ml and 100 μg/ml. The solution was further diluted with the same medium to obtain a series of geometric concentrations. To the serial dilutions were added the seed cultures prepared by shaking culture of various test microorganisms shown in Tab. 5 in the BRAIN HEART INFUSION GROTH at 28° C. for 18 hours, the final cell count being about 1×10^5 /ml. […] The lowest concentration at which no cell growth was observed was the minimum inhibitory concentration of the antibiotic PS-7 on the test microorganism. […] . The minimum inhibitory concentrations on test strains were determined in the same manner as mentioned above. […] For the comparison, the results on the known antibiotics Cephazolin and Cefoxitin are also given in the same table.
# [2] = test system: Citrobacter freundii E-9; test: MIC, broth dilution method; type: cell-based; conditions: Citrobacter freundii, read-out: Minimum inhibitory concentration
# Protocol: as §1
# [3] = test system: Enterobacter cloacae E-16; test: MIC, broth dilution method; type: cell-based; conditions: Enterobacter cloacae, read-out: Minimum inhibitory concentration
# Protocol: Sodium salt of the antibiotic PS-7 was dissolved and diluted with the BRAIN HEART INFUSION BROTH "Eiken" at a concentration between 5 μg/ml and 100 μg/ml. The solution was further diluted with the same medium to obtain a series of geometric concentrations. To the serial dilutions were added the seed cultures prepared by shaking culture of various test microorganisms shown in Tab. 5 in the BRAIN HEART INFUSION GROTH at 28° C. for 18 hours, the final cell count being about 1×10^5 /ml. […] The lowest concentration at which no cell growth was observed was the minimum inhibitory concentration of the antibiotic PS-7 on the test microorganism. […] The minimum inhibitory concentrations on test strains were determined in the same manner as mentioned above.
# [4] = test system: Proteus vulgaris P-5; test: Potentiating and synergistic effect, pulp disc inhibition zone on agar plate; type: cell-based; conditions: for Diameter of inhibitory zone, No addition / Diameter of inhibitory zone, Cephaloridine-added: Table 8; for Diameter of inhibitory zone, No addition: medium without cephaloridine; for Diameter of inhibitory zone, Cephaloridine-added: cephaloridine in the agar
# Protocol: 10 ml of 2.5 folds diluted nutrient agar (pH 7.0) containing 50 μg/ml of penicillin G or cephaloridine was seeded with the β-lactamase producing and β-lactam-resistant microorganisms and poured in a 9 cm Petri dish to provide the bio-assay agar plate. […] A control assay plate was similarly prepared without penicillin G or cephaloridine. As reference antibiotics, 10,000 μg/ml of penicillin G or 20 μl of cephaloridine were disc-assayed under the same conditions.
# Cepholoridine was added to a 2.5-times diluted nutrient agar, pH 7.0 and the medium was inoculated with a β-lactam-producing strain that produceds β-lactamase. Ten ml of the medium was spread and solidified in a petri dish of 9 cm in diameter to prepare an assay plate. […] Each 20 μl of the solution and its 2- and 4-times diluted solutions was soaked in a pulp disc of 8 mm in diameter. To the surface of the above nutrient agar was placed the pulp disc and the size of the growth inhibitory zone around the disc was examined after incubation at 35° C. for 18 hours. […] In addition, for the comparison, a similar experiment was also performed with a pulp disk soaked with 20 μl of 10,000 μg/ml Penicillin G or Cepholoridine solution in place of the antibiotic PS-7.
# [5] = test system: Staphylococcus aureus Smith; test: In vivo activity in intraperitoneally infected mice; design: species or system DDY male mice; conditions: for ED50: Staphylococcus aureus, sc, mice infected i.p. with 5×10^5 cells/mouse, subcutaneous injection just after infection, read-out: 50% curative dose (CD50); for Therapeutic effect in infected mice: mice infected with pathogenic Gram-positive bacteria
# Protocol: Soon after infection, an aqueous solution of the antibiotic PS-5 sodium salt preparation was subcutaneously injected.
# Activity of the antibiotic PS-7 obtained above was determined using mice infected with Staphylococcus aureus Smith at 5×10^5 cells a mouse intraperitoneally. Sodium salt of the antibiotic PS-7 was administered to the mice subcutaneously immediately after the infection.
# The tritylation product of antibiotic PS-6 was subcutaneously injected just after infection. The 50% curative dose on male DDY mice (SHIZUOKA) was 5.5 mg/kg.
# The tritylation product of antibiotic PS-7 was subcutaneously injected just after infection. The 50% curative dose on make DDY mice (SHIZUOKA) was 4.5 mg/kg.
# [6] = Acute toxicity, intraperitoneal administration; type: in vivo, DDY male mice
# [7] = Stability (general statements); type: physicochemical; conditions: general statement
# [8] = test system: Gram-positive and Gram-negative bacteria; test: Antibiotic spectra (summary in words); type: cell-based; conditions: for Antibiotic activity against Gram-negative bacteria resistant to β-lactam antibiotics: genera Citrobacter, Proteus, Klebsiella, Enterobacter, Serratia as named at the place; for Antibiotic activity against Gram-positive bacteria: genera Staphylococcus, Diplococcus, Streptococcus, Bacillus as named at the place
# [9] = disc x2 (2-times diluted PS-7 solution)
# [10] = disc x4 (4-times diluted PS-7 solution)
compound,measurement,setting,value
CC(=O)NCCSC1=C(C(=O)O)N2C(=O)C(C(C)C)C2C1 (centres unmarked) [Antibiotic PS-6],MIC,"[1]; Table 5, 35° C. 20 hours",1.56 µg/mL
same,MIC,"[2]; E9, 20 h, Table 5, betalactamase producer",12.5 µg/mL
same,MIC,"[3]; E16, 20 h, Table 5, betalactamase producer",25 µg/mL
same,zone of inhibition at 240 µg/mL,"[4]; Proteus vulgaris, P5, Table 6, plate without penicillin G or cephaloridine, 8 mm disc, 20 μl, PS-6 240 μg/ml, reference antibiotics 10,000 μg/ml, 35° C. 18 hours, read-out: Inhibition zone, Control",14 mm
same,"Inhibition zone, with cephaloridine","[4]; Table 6, agar containing 50 μg/ml of cephaloridine, disc 20 μl, PS-6 240 μg/ml, reference antibiotics 10,000 μg/ml",28.5 mm
same,"Inhibition zone, with penicillin G","[4]; Table 6, agar containing 50 μg/ml of penicillin G, disc 20 μl, PS-6 240 μg/ml, reference antibiotics 10,000 μg/ml",30.0 mm
same,ED50,[5],5.2 mg/kg
same,Therapeutic effect in infected mice,[5],marked therapeutic effect
same,Acute toxicity,"[6]; mice, 500 mg/kg",no toxicity
same,Acute toxicity,"[6]; mice, 500 mg/kg, listed as PS-6 sodium salt",No acute toxicity
same,Stability,[7],somewhat labile; also recorded: more stable in the salt form than in the free acid state
same,"Antibiotic activity against Gram-negative bacteria of the genera Klebsiella, Proteus",[8],good activity
same,Antibiotic activity against Gram-negative bacteria of the genus Alcaligenes (Comamonas),[8],very strong activity
same,Antibiotic activity against Gram-negative bacteria resistant to β-lactam antibiotics,[8],strong activity
same,Antibiotic activity against Gram-positive bacteria,[8],very strong activity
CCC1C(=O)N2C(C(=O)O)=C(SC=CNC(C)=O)CC12 (centres unmarked) [Antibiotic PS-7],MIC,"[1]; Table 7, no unit in the head",0.78 µg/mL
same,MIC,"[2]; E9, Table 7, no unit in the head, lactamase-producing strain",3.13 µg/mL
same,MIC,"[3]; E16, Table 7, no unit in the head, lactamase-producing strain",6.25 µg/mL
same,"Diameter of inhibitory zone, No addition","[4]; disc x1 (undiluted PS-7 solution, 50 μg/ml or 29 μg/ml, 20 μl)",0.0 mm
same,"Diameter of inhibitory zone, Cephaloridine-added","[4]; disc x1 (undiluted PS-7 solution, 20 μl)",19.0 mm
same,"Diameter of inhibitory zone, Cephaloridine-added",[4]; [9],15.0 mm
same,"Diameter of inhibitory zone, No addition",[4]; [9],0.0 mm
same,"Diameter of inhibitory zone, Cephaloridine-added",[4]; [10],11.0 mm
same,"Diameter of inhibitory zone, No addition",[4]; [10],0.0 mm
same,ED50,[5],7.5 mg/kg
same,Therapeutic effect in infected mice,[5],marked therapeutic effect
same,Acute toxicity,"[6]; DDY male mice, dose not given",No acute toxicity
same,Acute toxicity,"[6]; mice, 500 mg/kg",no acute toxicity
same,Stability,[7],somewhat labile; also recorded: more stable in the salt form than in the free acid state
same,Antibiotic activity against Gram-negative bacteria of the genus Alcaligenes (Comamonas),[8],high antimicrobial activity
same,Antibiotic activity against Gram-negative bacteria resistant to β-lactam antibiotics,[8],high antimicrobial activity
same,Antibiotic activity against Gram-positive bacteria,[8],very high antimicrobial activity
